Biological target: T1, recombinant human IDO1 enzyme (Homo sapiens, UniProt P14902)
T1 construct: purchased NTRC NTRC-hlDO-10K
Experiment: In vitro hIDO1 enzyme activity test (NFK Green fluorescence)
Type: biochemical
Settings: recombinant human IDO1, L-tryptophan substrate, pH 6.5
Procedure: The change of NFK production was detected by using the NFK Green™ fluorescent molecule, which is the metabolite of the IDO1 enzyme, and the IC50 value of the compound was used as an index, to evaluate the inhibitory effect of the compound on the recombinant human IDO1 enzyme.
IDO1 Enzyme Activity Assay Kit, NTRC # NTRC-hlDO-10K;
The compound was diluted to 1 mM in DMSO, and then diluted 3-fold in duplicate wells, with 10 gradients. 48 μL of 50 mM phosphate buffer (pH 6.5) was transferred to the compound plate via Bravo automated liquid handling platform. 2 μL of the diluted solution of the compound in DMSO was then added and mixed, followed by transferring 10 μL therein to an enzyme reaction plate.
The IDO1 enzyme was diluted to 20 nM in the reaction buffer (50 mM phosphate buffer pH 6.5, 0.1% Tween-20, 2% glycerol, 20 mM ascorbic acid, 20 μg/mL catalase and 20 μM methylene blue), and 20 μL of the solution was transferred to an enzyme reaction plate and incubated at 23° C. for 30 min. The reaction was started by adding 10 μL of 400 μM L-type tryptophan substrate and incubated at 23° C. for 90 min. 10 μL of NFK Green™ fluorescent dye was added, and the plate was sealed with the sealing film, incubated at 37° C. for 4 h, and then read on Envision Multimode Plate Reader (Ex 400 nm/Em 510 nm).
The control wells with the IDO1 enzyme but no compound was set as 0% inhibition, and the control wells without the IDO1 enzyme was set as 100% inhibition, and the IC50 value of the compound was calculated by analyzing the data with XLFit 5.

T1 sequence (P14902 whole entry): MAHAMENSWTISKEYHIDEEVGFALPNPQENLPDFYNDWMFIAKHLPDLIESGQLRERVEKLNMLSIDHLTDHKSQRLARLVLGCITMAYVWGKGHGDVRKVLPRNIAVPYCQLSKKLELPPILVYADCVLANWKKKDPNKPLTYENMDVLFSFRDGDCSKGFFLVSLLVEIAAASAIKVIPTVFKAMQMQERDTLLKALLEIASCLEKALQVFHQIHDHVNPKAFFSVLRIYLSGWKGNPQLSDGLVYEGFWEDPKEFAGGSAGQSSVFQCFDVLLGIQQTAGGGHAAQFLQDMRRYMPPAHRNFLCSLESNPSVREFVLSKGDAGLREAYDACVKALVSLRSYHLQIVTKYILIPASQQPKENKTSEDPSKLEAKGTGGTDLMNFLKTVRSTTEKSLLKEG

Row | IC50 | SMILES
1 | > 10 µM | O=C(O)C1CCCC(C2c3sccc3-c3cncn32)C1 (single isomer, unassigned) [Example 97, 3-(8H-thieno[3,4]pyrrolo[1,5-a]imidazol-8-yl) cyclohexylcarboxylic acid]
2 | > 10 µM | O=C(O)C1CCCC(C2c3sccc3-c3cncn32)C1 (single isomer, unassigned) [Example 98, 3-(8H-thieno[3,4]pyrrolo[1,5-a]imidazol-8-yl) cyclohexylcarboxylic acid]
3 | > 10 µM | O=C(O)C1CCCC(C2c3sccc3-c3cncn32)C1 (single isomer, unassigned) [Example 99, 3-(8H-thieno[3,4]pyrrolo[1,5-a]imidazol-8-yl) cyclohexylcarboxylic acid]
4 | 6.77 µM | O=C(O)C1CCCC(C2c3sccc3-c3cncn32)C1 (single isomer, unassigned) [Example 100, 3-(8H-thieno[3,4]pyrrolo[1,5-a]imidazol-8-yl) cyclohexylcarboxylic acid]
5 | > 10 µM | O=C(O)C1CCCC(C2c3sccc3-c3cncn32)C1 (single isomer, unassigned) [Example 101, 3-(8H-thieno[3,4]pyrrolo[1,5-a]imidazol-8-yl) cyclohexylcarboxylic acid]
6 | > 10 µM | O=C(O)C1CCCC(C2c3sccc3-c3cncn32)C1 (single isomer, unassigned) [Example 102, 3-(8H-thieno[3,4]pyrrolo[1,5-a]imidazol-8-yl) cyclohexylcarboxylic acid]
7 | > 10 µM | O=C(O)C1CCCC(C2c3sccc3-c3cncn32)C1 (single isomer, unassigned) [Example 103, 3-(8H-thieno[3,4]pyrrolo[1,5-a]imidazol-8-yl) cyclohexylcarboxylic acid]
8 | > 10 µM | O=C(O)C1CCCC(C2c3sccc3-c3cncn32)C1 (single isomer, unassigned) [Example 104, 3-(8H-thieno[3,4]pyrrolo[1,5-a]imidazol-8-yl) cyclohexylcarboxylic acid]
9 | 0.183 µM | O[C@@H]1CCCC1[C@H]1c2sccc2-c2cncn21 (single isomer, unassigned) [Example 107, (trans)-2-(8H-thieno[3′,2′:3,4]pyrrolo[1,2-c]imidazol-8-yl)cyclopentanol]
10 | > 10 µM | O[C@@H]1CCCC1[C@H]1c2sccc2-c2cncn21 (single isomer, unassigned) [Example 108, (trans)-2-(8H-thieno[3′,2′:3,4]pyrrolo[1,2-c]imidazol-8-yl)cyclopentanol]
11 | > 10 µM | O[C@@H]1CCCC1[C@H]1c2sccc2-c2cncn21 (single isomer, unassigned) [Example 109, (trans)-2-(8H-thieno[3′,2′:3,4]pyrrolo[1,2-c]imidazol-8-yl)cyclopentanol]
12 | > 10 µM | O[C@@H]1CCCC1[C@H]1c2sccc2-c2cncn21 (single isomer, unassigned) [Example 110, (trans)-2-(8H-thieno[3′,2′:3,4]pyrrolo[1,2-c]imidazol-8-yl)cyclopentanol]
13 | 3.51 µM | OC1CCC(C2c3sccc3-c3cncn32)CC1 (single isomer, unassigned) [Example 115, 4-(8H-thieno[3,4]pyrrolo[1,5-a]imidazol-8-yl)-cyclohexanol]
14 | > 10 µM | OC1CCC(C2c3sccc3-c3cncn32)CC1 (single isomer, unassigned) [Example 116, 4-(8H-thieno[3,4]pyrrolo[1,5-a]imidazol-8-yl)-cyclohexanol]
15 | 7.29 µM | OC1CCC(C2c3sccc3-c3cncn32)CC1 (single isomer, unassigned) [Example 118, 4-(8H-thieno[3,4]pyrrolo[1,5-a]imidazol-8-yl)-cyclohexanol]
16 | > 10 µM | CC(C)(C(O)C1CCCCC1)C1c2sccc2-c2cncn21 (single isomer, unassigned) [Example 120, 1-cyclohexyl-2-methyl-2-(8H-thieno[3,4]pyrrolo[1,5-a]imidazol-8-yl)-propan-1-ol]
17 | 0.585 µM | CC(C)(C(O)C1CCCCC1)C1c2sccc2-c2cncn21 (single isomer, unassigned) [Example 121, 1-cyclohexyl-2-methyl-2-(8H-thieno[3,4]pyrrolo[1,5-a]imidazol-8-yl)-propan-1-ol]
18 | > 10 µM | CC(C)(C(O)C1CCCCC1)C1c2sccc2-c2cncn21 (single isomer, unassigned) [Example 122, 1-cyclohexyl-2-methyl-2-(8H-thieno[3,4]pyrrolo[1,5-a]imidazol-8-yl)-propan-1-ol]
19 | > 10 µM | c1ccc2c(C3CCC(C4c5sccc5-c5nccn54)CC3)ccnc2c1 (stereo not drawn) [Example 96, 5-(4-(quinolin-4-yl)cyclohexyl)-5H-thieno[3′,2′:3,4]pyrrolo[1,2-a]imidazole]

Continued, compound first:

Row | SMILES | IC50
20 | c1ccc(C2CCC(C3c4sccc4-c4cncn43)CC2)cc1 (single isomer, unassigned) [Example 88, 8-(4-phenylcyclohexyl)-8H-thieno[3′,2′:3,4]pyrrolo[1,2-c]imidazole] | 0.478 µM
21 | c1ccc(C2CCC(C3c4sccc4-c4cncn43)CC2)cc1 (single isomer, unassigned) [Example 89, 8-(4-phenylcyclohexyl)-8H-thieno[3′,2′:3,4]pyrrolo[1,2-c]imidazole] | > 10 µM
22 | Cc1cc2c(s1)C(C1CCCCC1)n1cncc1-2 (single isomer, unassigned) [Example 90, 8-cyclohexyl-2-dimethyl-8H-thieno[3′,2′:3,4]pyrrolo[1,2-c]imidazole] | > 10 µM
23 | Cc1cc2c(s1)C(C1CCCCC1)n1cncc1-2 (single isomer, unassigned) [Example 91, 8-cyclohexyl-2-dimethyl-8H-thieno[3′,2′:3,4]pyrrolo[1,2-c]imidazole] | 6.75 µM
24 | c1ccc2c(C3CCC(C4c5sccc5-c5cncn54)CC3)ccnc2c1 (single isomer, unassigned) [Example 92, 5-(4-(quinolin-4-yl)cyclohexyl)-8H-thieno[3′,2′:3,4]pyrrolo[1,2-c]imidazole] | 0.686 µM
25 | c1ccc2c(C3CCC(C4c5sccc5-c5cncn54)CC3)ccnc2c1 (single isomer, unassigned) [Example 93, 5-(4-(quinolin-4-yl)cyclohexyl)-8H-thieno[3′,2′:3,4]pyrrolo[1,2-c]imidazole] | > 10 µM
26 | c1ccc2c(C3CCC(C4c5sccc5-c5cncn54)CC3)ccnc2c1 (single isomer, unassigned) [Example 94, 5-(4-(quinolin-4-yl)cyclohexyl)-8H-thieno[3′,2′:3,4]pyrrolo[1,2-c]imidazole] | 1.46 µM
27 | c1ccc2c(C3CCC(C4c5sccc5-c5cncn54)CC3)ccnc2c1 (single isomer, unassigned) [Example 95, 5-(4-(quinolin-4-yl)cyclohexyl)-8H-thieno[3′,2′:3,4]pyrrolo[1,2-c]imidazole] | > 10 µM
28 | OCCC1c2sccc2-c2cncn21 (stereo not drawn) [Example 11, 2-(8H-thieno[3′,2′:3,4]pyrrolo[1,2-c]imidazol-8-yl)ethanol] | 5.98 µM
29 | OC(CC1c2cscc2-c2cncn21)C1CCCCC1 (stereo not drawn) [Example 12, 1-cyclohexyl-2-(5H-thieno[3′,4′:3,4]pyrrolo[1,2-c]imidazol-5-yl)ethanol] | 0.106 µM
30 | CC(C)(C)C1c2sccc2-c2cncn21 (stereo not drawn) [Example 23, 8-(tert-butyl)-8H-thieno[3′,2′:3,4]pyrrolo[1,2-c]imidazole] | 5.26 µM
31 | CC(C)CC1c2sccc2-c2cncn21 (stereo not drawn) [Example 24, 8-isobutyl-8H-thieno[3′,2′:3,4]pyrrolo[1,2-c]imidazole] | 1.03 µM
32 | CC(C)C1c2sccc2-c2cncn21 (stereo not drawn) [Example 25, 8-isopropyl-8H-thieno[3,4]pyrrolo[1,5-a]imidazole] | 8.12 µM
33 | c1cc2c(s1)C(CCN1CCOCC1)n1cncc1-2 (stereo not drawn) [Example 30] | > 10 µM
34 | c1cc2c(s1)C(CCN1CCCCC1)n1cncc1-2 (stereo not drawn) [Example 31, 8-(2-(piperidin-1-yl)ethyl)-8H-thieno[3′,2′:3,4]pyrrolo[1,2-c]imidazole] | > 10 µM
35 | c1cc2c(s1)C(C1CCC1)n1cncc1-2 (stereo not drawn) [Example 32, 8-cyclobutyl-8-hydro-thieno[3,4]pyrrolo[1,5-a]imidazole] | 0.807 µM
36 | O[C@@H](C[C@@H]1c2sccc2-c2cncn21)C1CCC(F)(F)CC1 [Example 47, (1S)-1-(4,4-difluorocyclohexyl)-2-((R)-8H-thieno[3,4]pyrrolo[1,5-a]imidazol-8-yl)ethanol] | 1.68 µM

Reference: US10487088B2, “Tricyclic compound serving as immunomodulator” (Chia Tai Tianqing Pharmaceutical Group Co., Ltd., priority 2016, dated 2019)
